The record followed here is patent US8946215B2, “Hydroxy-substituted imidazo[1,2-a]pyridinecarboxamides and their use” (Bayer Pharma Aktiengesellschaft, priority 2012, dated 2015).

Structures are written as SMILES. Structures can show the parent of a compound that is named as a salt.

The test addresses T1, recombinant guanylate cyclase reporter cell line (Rattus norvegicus, UniProt P19686+P20595).
T1 construct: expressed in transfected cells
T1 sequence (P20595 1-619): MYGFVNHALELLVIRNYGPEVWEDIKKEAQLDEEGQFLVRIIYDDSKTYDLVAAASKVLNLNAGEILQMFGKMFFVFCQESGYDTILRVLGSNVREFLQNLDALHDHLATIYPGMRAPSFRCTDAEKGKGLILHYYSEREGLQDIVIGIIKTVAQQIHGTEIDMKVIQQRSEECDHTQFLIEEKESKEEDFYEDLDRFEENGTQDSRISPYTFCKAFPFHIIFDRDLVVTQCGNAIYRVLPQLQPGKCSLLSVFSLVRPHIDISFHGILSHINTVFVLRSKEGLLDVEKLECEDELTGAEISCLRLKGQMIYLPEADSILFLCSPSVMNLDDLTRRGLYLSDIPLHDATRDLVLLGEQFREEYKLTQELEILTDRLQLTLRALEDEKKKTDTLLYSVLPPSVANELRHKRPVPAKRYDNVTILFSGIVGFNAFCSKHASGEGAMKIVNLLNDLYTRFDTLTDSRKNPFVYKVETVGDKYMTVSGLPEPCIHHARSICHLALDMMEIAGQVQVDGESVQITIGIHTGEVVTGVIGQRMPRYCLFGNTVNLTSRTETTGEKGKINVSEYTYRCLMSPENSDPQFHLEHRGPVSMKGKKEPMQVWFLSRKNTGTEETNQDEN
T1 sequence (P19686 1-690): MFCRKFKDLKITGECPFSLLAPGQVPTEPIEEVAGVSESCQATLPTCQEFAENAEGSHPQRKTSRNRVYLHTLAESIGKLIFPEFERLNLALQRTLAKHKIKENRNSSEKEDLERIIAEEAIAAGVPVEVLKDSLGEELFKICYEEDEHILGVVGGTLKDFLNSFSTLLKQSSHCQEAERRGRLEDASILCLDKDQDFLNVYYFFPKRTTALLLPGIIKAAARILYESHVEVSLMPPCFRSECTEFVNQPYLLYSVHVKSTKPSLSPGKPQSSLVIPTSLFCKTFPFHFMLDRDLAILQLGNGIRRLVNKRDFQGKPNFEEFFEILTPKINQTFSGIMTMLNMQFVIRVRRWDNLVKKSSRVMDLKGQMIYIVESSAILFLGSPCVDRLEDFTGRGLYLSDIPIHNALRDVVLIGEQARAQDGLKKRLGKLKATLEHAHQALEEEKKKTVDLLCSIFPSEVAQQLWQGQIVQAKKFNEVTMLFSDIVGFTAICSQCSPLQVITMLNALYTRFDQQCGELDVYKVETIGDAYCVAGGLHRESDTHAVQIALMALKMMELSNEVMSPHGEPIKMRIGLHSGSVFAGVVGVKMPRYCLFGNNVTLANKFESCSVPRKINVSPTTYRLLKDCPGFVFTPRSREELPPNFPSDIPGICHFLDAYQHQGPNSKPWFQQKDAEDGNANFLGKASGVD
Kind of test: Action on recombinant guanylate cyclase reporter cell line. Format: cell-based. The note with it: in some cases mean values obtained from individual determinations. The method in brief:
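Cell-based reporter assay with recombinant guanylate cyclase expressed in a reporter cell line, per a published method. Activity reported as minimal effective concentration (MEC), in some cases as the mean of individual determinations.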
In the case of `CCCC[C@H](CO)NC(=O)c1c(C)nc2c(OCc3c(F)cccc3F)cc(Br)cn12` [Example 65, 6-bromo-8-[(2,6-difluorobenzyl)oxy]-N-[(2R)-1-hydroxyhexan-2-yl]-2-methylimidazo[1,2-a]pyridine-3-carboxamide], the “MEC (minimal effective concentration)” value was 0.03 µM.
The same measure for `CCC[C@H](CO)NC(=O)c1c(C)nc2c(OCC3CCCCC3)cccn12` [Example 67, 8-(cyclohexylmethoxy)-N-[(2R)-1-hydroxypentan-2-yl]-2-methylimidazo[1,2-a]pyridine-3-carboxamide]: 0.03 µM.
Under `Cc1nc2c(OCC3CCCCC3)cccn2c1C(=O)NC[C@H](O)CO` [Example 68, 8-(cyclohexylmethoxy)-N-[(2S)-2,3-dihydroxypropyl]-2-methylimidazo[1,2-a]pyridine-3-carboxamide] stands 0.03 µM.
In the case of `CC[C@H](CO)NC(=O)c1c(C)nc2c(OCC3CCCCC3)cccn12` [Example 72, 8-(cyclohexylmethoxy)-N-[(2R)-1-hydroxybutan-2-yl]-2-methylimidazo[1,2-a]pyridine-3-carboxamide], the “MEC (minimal effective concentration)” value is 0.1 µM.
For `Cc1nc2c(OCC3CCCCC3)cccn2c1C(=O)NCCCCO` [Example 74, 8-(cyclohexylmethoxy)-N-(4-hydroxybutyl)-2-methylimidazo[1,2-a]pyridine-3-carboxamide], the “MEC (minimal effective concentration)” value stood at 0.2 µM.
On to `Cc1nc2c(OCC3CCCCC3)cccn2c1C(=O)N[C@@H](C)CO` [Example 75, 8-(cyclohexylmethoxy)-N-[(2S)-1-hydroxypropan-2-yl]-2-methylimidazo[1,2-a]pyridine-3-carboxamide], for which the “MEC (minimal effective concentration)” value is 0.22 µM.
Regarding `Cc1nc2c(OCC3CCCCC3)cccn2c1C(=O)NCCO` [Example 76, 8-(cyclohexylmethoxy)-N-(2-hydroxyethyl)-2-methylimidazo[1,2-a]pyridine-3-carboxamide formate], the “MEC (minimal effective concentration)” value is 0.3 µM.
Under `Cc1nc2c(OCC3CCCCC3)cccn2c1C(=O)NC(CO)(CO)CO` [Example 77, 8-(cyclohexylmethoxy)-N-[1,3-dihydroxy-2-(hydroxymethyl)propan-2-yl]-2-methylimidazo[1,2-a]pyridine-3-carboxamide formate] stands 0.3 µM.
For `COCC(O)CNC(=O)c1c(C)nc2c(OCC3CCCCC3)cccn12` (stereo not shown) [Example 79, 8-(cyclohexylmethoxy)-N-(2-hydroxy-3-methoxypropyl)-2-methylimidazo[1,2-a]pyridine-3-carboxamide], the “MEC (minimal effective concentration)” value came out at 0.3 µM.
For `Cc1nc2c(OCC3CCCCC3)cccn2c1C(=O)NC[C@@H](O)CO` [Example 80, 8-(cyclohexylmethoxy)-N-[(2R)-2,3-dihydroxypropyl]-2-methylimidazo[1,2-a]pyridine-3-carboxamide], the “MEC (minimal effective concentration)” value was 0.3 µM.
With `Cc1nc2c(OCC3CCCCC3)cccn2c1C(=O)NCCCO` [Example 82, 8-(cyclohexylmethoxy)-N-(3-hydroxypropyl)-2-methylimidazo[1,2-a]pyridine-3-carboxamide], the “MEC (minimal effective concentration)” value amounted to 0.3 µM.
For `Cc1nc2c(OCC3CCCCC3)cccn2c1C(=O)NC1CCCC1O` (stereo not shown) [Example 83, 8-(cyclohexylmethoxy)-N-(2-hydroxycyclopentyl)-2-methylimidazo[1,2-a]pyridine-3-carboxamide], the “MEC (minimal effective concentration)” value was determined as 0.3 µM.
Consider `Cc1nc2c(OCC3CCCCC3)cccn2c1C(=O)NC(C)CO` (stereo not shown) [Example 84, 8-(cyclohexylmethoxy)-N-(1-hydroxypropan-2-yl)-2-methylimidazo[1,2-a]pyridine-3-carboxamide], for which the “MEC (minimal effective concentration)” value was found to be 0.3 µM.
Consider `Cc1nc2c(OCC3CCCCC3)cccn2c1C(=O)NC(CO)CO` [Example 85, 8-(cyclohexylmethoxy)-N-(1,3-dihydroxypropan-2-yl)-2-methylimidazo[1,2-a]pyridine-3-carboxamide], for which the “MEC (minimal effective concentration)” value is 0.38 µM.
For the compound `Cc1nc2c(OCC3CCCCC3)cccn2c1C(=O)NCCOCCO` [Example 86, 8-(cyclohexylmethoxy)-N-[2-(2-hydroxyethoxy)ethyl]-2-methylimidazo[1,2-a]-pyridine-3-carboxamide], the “MEC (minimal effective concentration)” value came out at 0.65 µM.
The same measure for `Cc1nc2c(OCC3CCCCC3)cccn2c1C(=O)NC(C)(C)C(C)O` (stereo not shown) [Example 87, 8-(cyclohexylmethoxy)-N-(3-hydroxy-2-methylbutan-2-yl)-2-methylimidazo[1,2-a]pyridine-3-carboxamide]: 1.0 µM; for `CC[C@@H](CO)NC(=O)c1c(C)nc2c(OCC3CCCCC3)cccn12` [Example 88, 8-(cyclohexylmethoxy)-N-[(2S)-1-hydroxybutan-2-yl]-2-methylimidazo[1,2-a]pyridine-3-carboxamide]: 1.0 µM.
Under `CCC[C@@H](CO)NC(=O)c1c(C)nc2c(OCC3CCCCC3)cccn12` [Example 89, 8-(cyclohexylmethoxy)-N-[(2S)-1-hydroxypentan-2-yl]-2-methylimidazo[1,2-a]pyridine-3-carboxamide] stands 1.0 µM; under `CSCC[C@@H](CO)NC(=O)c1c(C)nc2c(OCC3CCCCC3)cccn12` [Example 90, 8-(cyclohexylmethoxy)-N-[(2S)-1-hydroxy-4-(methylsulphanyl)butan-2-yl]-2-methylimidazo[1,2-a]pyridine-3-carboxamide], 1.0 µM.
Regarding `CC[C@H](C)[C@@H](CO)NC(=O)c1c(C)nc2c(OCC3CCCCC3)cccn12` [Example 91, 8-(cyclohexylmethoxy)-N-[(2S,3S)-1-hydroxy-3-methylpentan-2-yl]-2-methylimidazo[1,2-a]pyridine-3-carboxamide], the “MEC (minimal effective concentration)” value worked out at 1.0 µM.
The same measure for `Cc1nc2c(OCC3CCCCC3)cccn2c1C(=O)NC1(CO)CCCC1` [Example 92, 8-(cyclohexylmethoxy)-N-[1-(hydroxymethyl)cyclopentyl]-2-methylimidazo[1,2-a]pyridine-3-carboxamide]: 1.0 µM; for `Cc1nc2c(OCC3CCCCC3)cccn2c1C(=O)N[C@H](CO)C(C)C` [Example 93, 8-(cyclohexylmethoxy)-N-[(2S)-1-hydroxy-3-methylbutan-2-yl]-2-methylimidazo[1,2-a]pyridine-3-carboxamide]: 1.0 µM; for `Cc1nc2c(OCC3CCCCC3)cccn2c1C(=O)NC(CO)COC(C)(C)C` (stereo not shown) [Example 94, N-(1-tert-butoxy-3-hydroxypropan-2-yl)-8-(cyclohexylmethoxy)-2-methylimidazo[1,2-a]-pyridine-3-carboxamide]: 3.0 µM.
Regarding `Cc1nc2c(OCC3CCCCC3)cccn2c1C(=O)N[C@H](CO)CC(C)C` [Example 95, 8-(cyclohexylmethoxy)-N-[(2S)-1-hydroxy-4-methylpentan-2-yl]-2-methylimidazo[1,2-a]pyridine-3-carboxamide], the “MEC (minimal effective concentration)” value was 3.0 µM.
For `CCC(C)[C@H](CO)NC(=O)c1c(C)nc2c(OCC3CCCCC3)cccn12` (stereo partly drawn) [Example 96, 8-(cyclohexylmethoxy)-N-[(2R)-1-hydroxy-3-methylpentan-2-yl]-2-methylimidazo[1,2-a]pyridine-3-carboxamide], the “MEC (minimal effective concentration)” value turned out to be 3.0 µM.
